From patent EP0195316A1, “Quinolonecarboxylic acid derivatives” (KYORIN PHARMACEUTICAL CO., LTD., priority 1985, dated 1986)
≈ marks a conversion by molar mass, not a printed value. Marks after values point to notes of the source that are not given here.

Columns and labels:
[1] = test system: S. aureus Smith; test: In vivo antibacterial activity against systemic infections in mice; conditions: Staphylococcus aureus; S. aureus Smith systemic infection (i.p.), male ICR mice, oral administration an hour after infection; read-out: ED50
Method: (§1) The infections were produced by intraperitoneal injection of suspension of the bacterial cells. The compounds were administered orally at an hour after the injection. Five male ICR mice were used for each dosage. […] The efficacy of the present compound are shown in Table 4 in comparison with those of the reference compounds.

[2] = test system: E. coli ML 4707; test: as above; conditions: Escherichia coli, ML4707; E. coli ML 4707 systemic infection (i.p.), male ICR mice, oral administration an hour after infection; read-out: ED50
Method: as §1

[3] = test system: P. aeruginosa IID 1210; test: as above; conditions: Pseudomonas aeruginosa, IID1210; P. aeruginosa IID 1210 systemic infection (i.p.), male ICR mice, oral administration an hour after infection; read-out: ED50
Method: as §1

[4] = test system: S. pneumoniae S-4288; test: as above; conditions: Streptococcus pneumoniae, S4288; S. pneumoniae S-4288 systemic infection (i.p.), male ICR mice, oral administration an hour after infection; read-out: ED50
Method: as §1

[5] = in vivo; conditions: rat, po, 10 mg/kg
[6] = in vivo; conditions: mouse, iv
[7] = Absorption and metabolism in dogs (HPLC); assay type: in vivo, beagle dogs
Method: A 2 mg dose of the present compound was administered to beagle dogs orally or intravenously, and the serum levels were measured by HPLC (High-performance liquid chromatography).

[8] = test system: nalidixic acid-resistant Salmonella typhimurium TA98 strain (nal^r); test: Mutagenicity, reverse mutation assay
Source text: As for antibacterial agents, assessment of mutagenicity using bacteria is somewhat difficult because of their activity on the test bacteria.

[9] = test system: C. ramosum; test: MIC, in vitro antibacterial activity (standard strains); assay type: cell-based; conditions: Thomasclavelia ramosa, 10^6 cells/ml, Gram +
[10] = Subacute toxicity in dog; assay type: in vivo; conditions: beagle dogs, oral, 20 mg/kg/day for 8 days then 50 mg/kg/day for 7 days
Method: Subacute toxicity study of the present compound was carried out in beagledogs (10 weeks old, n=3). To animals 20 mg/kg/day of the present compound for 8 days and after that 50 mg/kg/day for 7 days was administered orally.

[11] = test system: B. fragilis 0558; test: MIC, in vitro antibacterial activity (standard strains); assay type: cell-based; conditions: Bacteroides fragilis; B. fragilis 0558, 10^6 cells/ml, Gram -
[12] = Repeated oral administration to dog (reference compound); assay type: in vivo

## NC1CCN(c2c(F)cc3c(=O)c(C(=O)O)cn(C4CC4)c3c2Cl)C1 (stereo not drawn) [Example 25, 7-(3-Amino-l-pyrrolidinyl)-8-chloro-l-cyclopropyl-6-fluoro-1,4-dihydro-4-oxo-3-quinolinecarboxylic acid]
[1]
  ED50: 2 mg/kg
[2]
  ED50: 0.9 mg/kg
[3]
  ED50: 2.9 mg/kg
[4]
  ED50: 13 mg/kg
[5]; Excretion rate (% of dose) Bile
  dose excreted at 24 h: 13.4%
[5]; Excretion rate (% of dose) Urine
  dose excreted at 24 h: 21.7%
[6]
  LD50: 242 mg/kg
[7]; animals (dogs section)
  urinary metabolites: may be hardly metabolized
[7]; beagle dogs, 2 mg dose, HPLC
  Serum levels by oral route versus intravenous route: almost equal to those by intravenous route
[8]; 0.005 µg/plate, S9-mix +
  His^+ revertants per plate: 60
[8]; 0.005 µg/plate, S9-mix -
  His^+ revertants per plate: 28
[8]; 0.01 µg/plate, S9-mix +
  His^+ revertants per plate: 48
[8]; 0.01 µg/plate, S9-mix -
  His^+ revertants per plate: 29
[8]; 0.05 µg/plate, S9-mix +
  His^+ revertants per plate: 39*
[8]; 0.05 µg/plate, S9-mix -
  His^+ revertants per plate: 26
[8]; 0.1 µg/plate, S9-mix +
  His^+ revertants per plate: 6*
[8]; 0.1 µg/plate, S9-mix -
  His^+ revertants per plate: 16*
[8]; 0.5 µg/plate, S9-mix +
  His^+ revertants per plate: 0*
[8]; 0.5 µg/plate, S9-mix -
  His^+ revertants per plate: 0*
[8]; within measurable concentration, with and without the drug metabolic activation
  His revertant colonies compared with the solvent control: no increment of His revertant colonies
[9]
  MIC: 0.78 µg/mL
[10]
  changes in body weight and general conditions: No remarkable changes in body weight and general conditions
  hematological examination and serum biochemical analysis: no abnormality with regard to hematological examination and serum biochemical analysis
[11]
  MIC: 0.1 µg/mL (≈ 0.273 µM)

## CC1CN(c2c(F)cc3c(=O)c(C(=O)O)cn(C4CC4)c3c2Cl)CCN1 (stereo not shown) [Ref.2, 8-Chloro-1-cyclopropyl-6-fluoro-1,4-dihydro-7-(3-methyl-1-piperazinyl)-4-oxo-3-quinolinecarboxylic acid]
[12]
  GPT and TTT (hepatoxicity): marked elevation of GPT and decrease of TTT
  side effect on central nervous system: strong vomiting and clonic convulsion
[9]
  MIC: 3.13 µg/mL
[11]
  MIC: 0.39 µg/mL (≈ 1.03 µM)
